# Results as given in paper PMC9536713, “Synthesis and Preclinical Evaluation of ^177Lu-Labeled Radiohybrid PSMA Ligands for Endoradiotherapy of Prostate Cancer” (Journal of Nuclear Medicine, 2022).
# Where two headings read alike, the source gives them in different places.
# How the values were obtained:
# [1] = target: T1, human serum albumin (HSA) (Homo sapiens, UniProt P02768); experiment: Binding to HSA by albumin-mediated size-exclusion chromatography (AMSEC), apparent molecular weight; type: in vitro ADME; settings: HSA buffer at physiologic concentration as mobile phase, room temperature, window 2.1-70.2 kDa
# T1 construct: purchased Biowest
# Procedure: Binding of ^177Lu-labeled ligands to HSA was assessed by albumin-mediated size-exclusion chromatography (AMSEC), a novel method that has recently been developed by our group to determine the apparent molecular weight (AMW) of a compound in the presence of HSA. A dedicated and detailed description of the AMSEC method will be published elsewhere to cover the context and the development process of this method in its entirety. Briefly, a gel filtration size-exclusion column (Superdex 75 Increase 10/300 GL; fractionation range, 70–3 kDa; GE Healthcare) was calibrated as recommended by the manufacturer using a commercially available set of proteins (Gel Filtration LMW Calibration Kit; GE Healthcare). AMSEC experiments were performed by injection of the various radioligands using an HSA buffer at physiologic concentration (Biowest) as the mobile phase at room temperature. Depending on the strength of the HSA/ligand interaction during the chromatographic procedure, an injected radioligand (1.0 MBq, 10–20 GBq/μmol) can show a reduced retention time that correlates to AMWs higher than the actual, physical, molecular weight (the latter being for all investigated ligands < 2 kDa, and thus below the column fractionation range). The stronger this interaction, the longer the mean time the ligand is bound to HSA during the chromatographic process and the faster the ligand is eluted from the column. By means of calibration, the retention time can be translated into a ligand-specific AMW (expressed in kDa) as a parameter allowing quantification of the extent of HSA binding. The detection window ranges between 2.1 kDa (cutoff value, determined by [^18F]fluoride; no HSA interaction) and 70.2 kDa (experimental molecular weight of HSA; maximum HSA interaction). [^177Lu]Lu-rhPSMA-7.3 served as an internal standard during AMSEC studies (30.4 ± 0.5 kDa; n = 10).
# [2] = test system: LNCaP tumor xenografts; experiment: Biodistribution and small-animal SPECT/CT in LNCaP tumor-bearing mice, 24 h after injection; type: in vivo, male CB-17 SCID mice
# Procedure: All animal experiments were conducted in accordance with general animal welfare regulations in Germany (German animal protection act, as amended on May 18, 2018, article 141 G, version March 29, 2017, I 626, approval 55.2-1-54-2532-71-13) and the institutional guidelines for the care and use of animals. LNCaP tumor xenografts were established in 6- to 8-wk-old male CB-17 SCID mice as described previously ([8]).
# The ^177Lu-labeled PSMA ligands (2–5 MBq; 0.1 nmol) were injected under isoflurane anesthesia into the tail vein of mice, which were euthanized 24 h after injection (n = 4–5). Selected organs were removed, weighed, and measured in a γ-counter. All rhPSMA ligands were evaluated during the same period (first quarter of 2020), whereas ^177Lu-labeled PSMA-617 and PSMA I&T ([17]) were assessed in 2016, using the identical cell line, mouse model, and experimental procedure.
# Static images of ^177Lu-labeled ligands in euthanized mice were recorded 24 h after injection directly after blood collection, with an acquisition time of 45 min using a high-energy, general-purpose rat-and-mouse collimator and a stepwise multiplanar bed movement. For imaging studies, a VECTor4 small-animal SPECT/PET/optical imaging/CT device from MILabs was applied. Data were reconstructed using MILabs.Rec software (version 10.02) and PMOD software (version 4.0; PMOD Technologies LLC). After imaging, the mice underwent biodistribution studies.
# [3] = Lipophilicity, n-octanol/phosphate-buffered saline distribution (log D7.4); type: physicochemical; settings: pH 7.4, n = 6
# Procedure: Approximately 1 MBq of the ^177Lu-labeled PSMA ligand was dissolved in 1 mL of a 1:1 mixture (v/v) of phosphate-buffered saline (pH 7.4) and n-octanol (n = 6). After vigorous mixing of the suspension for 3 min, the vial was centrifuged at 15,000g for 3 min, and 100-μL aliquots of both layers were measured in a γ-counter. Finally, the ratio of the radioactivity detected in the n-octanol sample and the phosphate-buffered saline buffer was calculated and expressed as distribution ratio log D7.4.
# [4] = set-up: method as in earlier work; settings: patients; cited from earlier work
# [5] = target: T2, PSMA (Homo sapiens, UniProt Q04609); experiment: Competitive binding (IC50) on LNCaP cells against ([125I]IBA)KuE
# T2 construct: endogenous in cells; host or cells: LNCaP cells
# Procedure: (§1) Competitive binding studies were determined on LNCaP cells (1.5 × 10^5 cells in 0.25 mL/well) after incubation at 4°C for 1 h, using (((S)-1-carboxy-5-(4-([^125I]iodo)benzamido)pentyl)carbamoyl)-L-glutamic acid ([^125I]IBA)KuE; 0.2 nM/well) as the reference radioligand (n = 3). Internalization studies of the radiolabeled ligands (1.0 nM/well) were performed on LNCaP cells (1.25 × 10^5 cells in 0.25 mL/well) at 37°C for 1 h and accompanied by ([^125I]IBA)KuE (0.2 nM/well) as a reference. Data were corrected for nonspecific binding and normalized to the specific internalization observed for the reference (n = 3), as previously published ([8]).
# [6] = target: T3, PSMA (LNCaP cells) (Homo sapiens, UniProt Q04609); experiment: PSMA-mediated internalization into LNCaP cells; type: cell-based; settings: 1 h, 37°C, 1.0 nM/well, n = 3
# T3 construct: endogenous in cells; host or cells: LNCaP cells
# Procedure: as §1
# [7] = set-up: method as in PMID 34531260; settings: patients; cited from earlier work
# [8] = patients; cited from earlier work
# [9] = test system: LNCaP tumor xenografts; set-up: method as in PMID 30136051; settings: 24 h after injection, cited from earlier work
# [10] = 24 h after injection, LNCaP tumor-bearing SCID mice, mean ± SD, n = 4-5
# [11] = 24 h after injection, LNCaP tumor-bearing mice
# [12] = male, CB-17 SCID, mouse, in vivo, 24 h
# [13] = LNCaP tumor-bearing SCID mice, identical conditions
# [14] = LNCaP tumor-bearing mice, from previously published data
# T1 sequence (P02768 25-609): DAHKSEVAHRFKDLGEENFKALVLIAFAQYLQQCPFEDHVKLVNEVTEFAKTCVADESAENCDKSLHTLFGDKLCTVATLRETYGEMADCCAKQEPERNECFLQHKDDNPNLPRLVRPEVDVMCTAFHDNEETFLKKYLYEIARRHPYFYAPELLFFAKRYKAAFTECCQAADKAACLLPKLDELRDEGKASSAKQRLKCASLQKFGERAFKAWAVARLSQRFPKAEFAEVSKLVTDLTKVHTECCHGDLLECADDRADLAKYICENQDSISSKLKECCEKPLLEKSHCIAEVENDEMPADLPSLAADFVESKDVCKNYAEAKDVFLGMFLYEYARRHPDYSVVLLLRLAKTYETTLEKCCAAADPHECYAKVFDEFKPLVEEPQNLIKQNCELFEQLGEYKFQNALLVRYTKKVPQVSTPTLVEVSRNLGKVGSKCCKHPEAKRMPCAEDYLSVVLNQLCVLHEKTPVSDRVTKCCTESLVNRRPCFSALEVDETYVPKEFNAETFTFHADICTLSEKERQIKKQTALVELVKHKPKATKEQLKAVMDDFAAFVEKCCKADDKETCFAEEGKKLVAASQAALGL
# T3 sequence (Q04609 whole entry): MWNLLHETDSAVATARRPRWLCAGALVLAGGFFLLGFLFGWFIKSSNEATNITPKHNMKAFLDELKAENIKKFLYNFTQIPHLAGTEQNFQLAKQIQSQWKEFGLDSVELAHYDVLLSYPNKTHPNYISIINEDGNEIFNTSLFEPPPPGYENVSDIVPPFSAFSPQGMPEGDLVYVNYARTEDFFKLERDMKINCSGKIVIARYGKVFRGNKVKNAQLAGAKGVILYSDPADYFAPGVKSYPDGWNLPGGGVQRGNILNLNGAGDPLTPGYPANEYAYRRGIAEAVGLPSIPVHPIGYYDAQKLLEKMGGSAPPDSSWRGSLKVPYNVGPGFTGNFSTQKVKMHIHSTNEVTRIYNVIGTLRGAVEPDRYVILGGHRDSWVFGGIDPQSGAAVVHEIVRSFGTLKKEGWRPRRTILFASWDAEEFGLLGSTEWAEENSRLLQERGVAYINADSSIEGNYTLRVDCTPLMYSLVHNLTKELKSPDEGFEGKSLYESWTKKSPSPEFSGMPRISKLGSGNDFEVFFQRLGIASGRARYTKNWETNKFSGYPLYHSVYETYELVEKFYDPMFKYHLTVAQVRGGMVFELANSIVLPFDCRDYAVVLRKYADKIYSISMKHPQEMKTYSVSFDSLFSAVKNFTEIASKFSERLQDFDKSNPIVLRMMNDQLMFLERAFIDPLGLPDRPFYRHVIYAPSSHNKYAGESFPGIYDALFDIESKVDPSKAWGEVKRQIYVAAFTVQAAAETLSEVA
# T2 sequence (Q04609 whole entry): as above
structure (smiles),measurement,setting,value
CC(C)(C)[Si](F)(c1ccc(C(=O)NC[C@@H](NC(=O)CN2CCN(CC(=O)[O-])CCN(CC(=O)[O-])CCN(CC(=O)[O-])CC2)C(=O)N[C@H](CCCCNC(=O)CCC(=O)NCCC[C@@H](NC(=O)CC[C@H](NC(=O)N[C@@H](CCC(=O)O)C(=O)O)C(=O)O)C(=O)O)C(=O)O)cc1)C(C)(C)C.[177Lu+3] [[^177Lu]Lu-rhPSMA-10.1],apparent molecular weight (AMW),[1],25.1 kDa
same,kidney uptake as percentage of that of [177Lu]Lu-rhPSMA-7.3,[2]; 24 h after injection,20%
same,"tumor-to-blood ratio, times higher than for [177Lu]Lu-PSMA-617",[2]; 24 h after injection,8 times
same,"tumor-to-blood ratio, times higher than for [177Lu]Lu-rhPSMA-7.3",[2]; 24 h after injection,3 times
same,kidney uptake,[2]; [10],2.0 ± 0.8 %ID/g
same,tumor uptake,[2]; [10],9.8 ± 0.3 %ID/g
same,tumor-to-blood ratio,[2]; [11],"11,498"
same,tumor-to-kidney ratio,[2]; [11],5.7
same,tracer uptake in tumor of the imaged mouse,"[2]; single mouse of SPECT/CT image, 24 h after injection, from subsequent biodistribution",9.4 %ID/g
same,log D7.4,[3],−3.8
CC(C)(C)[Si]([18F])(c1ccc(C(=O)NC[C@@H](NC(=O)CC[C@@H](C(=O)O)N2CCN(CC(=O)[O-])CCN(CC(=O)[O-])CCN(CC(=O)[O-])CC2)C(=O)N[C@H](CCCCNC(=O)CCC(=O)NCCC[C@@H](NC(=O)CC[C@H](NC(=O)N[C@@H](CCC(=O)O)C(=O)O)C(=O)O)C(=O)O)C(=O)O)cc1)C(C)(C)C.[Ga+3] [[^18F]Ga-rhPSMA-7.3],fold higher tumor uptake than diastereomeric mixture [18F]Ga-rhPSMA-7,[4],1.6 fold
same,fold lower excretion into the bladder than diastereomeric mixture [18F]Ga-rhPSMA-7,[4],5 fold
same,fold lower kidney uptake than diastereomeric mixture [18F]Ga-rhPSMA-7,[4],1.6 fold
"O=C(O)CC[C@H](NC(=O)N[C@@H](CCCCNC(=O)[C@H](Cc1ccc2ccccc2c1)NC(=O)[C@H]1CC[C@H](CNC(=O)CN2CCN(CC(=O)O)CCN(CC(=O)O)CCN(CC(=O)O)CC2)CC1)C(=O)O)C(=O)O [[^177Lu]Lu-PSMA-617, metal not drawn]",IC50,[5],3.3 ± 0.2 nM
same,PSMA-mediated internalization as percentage of reference ligand ([125I]IBA)KuE,[6],203% ± 10%
same,apparent molecular weight (AMW),[1],13.7 kDa
same,tumor-to-kidney ratio,[2]; [11],5.9
same,kidney uptake,[2]; [12],1.4 ± 0.4 %ID/g
same,tumor uptake,[2]; [12],7.5 ± 0.9 %ID/g
same,tumor-to-blood ratio,[2]; [12],"1,424"
O=C([O-])CC[C@H](NC(=O)N[C@@H](CCCCNC(=O)CCCCCCC(=O)NCCCC[C@@H](NC(=O)[C@@H](Cc1ccccc1)NC(=O)[C@@H](Cc1ccc(O)c(I)c1)NC(=O)CC[C@H](C(=O)[O-])N1CCN(CC(=O)[O-])CCN(CC(=O)[O-])CCN(CC(=O)[O-])CC1)C(=O)[O-])C(=O)[O-])C(=O)[O-].[177Lu+3].[H+].[H+].[H+].[H+].[H+] [[^177Lu]Lu-PSMA I&T],effective dose (tumor),[7],2.6 ± 2.4 mGy/MBq
same,IC50,"[5]; LNCaP cells, 1 h, 4°C, ([125I]IBA)KuE 0.2 nM/well as reference radioligand, n = 3, read-out: PSMA binding affinity (half-maximal inhibitory concentration)",4.2 ± 0.8 nM
same,PSMA-mediated internalization as percentage of reference ligand ([125I]IBA)KuE,[6],145% ± 14%
same,apparent molecular weight (AMW),[1],5.3 kDa
same,absorbed dose to the kidney,[8],0.7 ± 0.2 Gy/GBq
same,kidney uptake,[9]; [13],34.7 ± 17.2 %ID/g
same,tumor uptake,[9]; [13],4.1 ± 1.1 %ID/g
same,tumor-to-blood ratio,[9]; [14],408
same,tumor-to-kidney ratio,[9]; [14],0.2
